From publication PMC12040169 (PLOS Biology, 2025) come the findings set out here.

A short description of the data set: in vitro. The following applies: human, hela cells, % viability.

In general, viability refers to a read-out of living cells in per cent, often relative to untreated cells. With `CCOC(=O)c1cc(Cl)cnc1C1CCN(C(=O)C2CC2)CC1` [CBK284810], the viability at 28.5 h, 10 µM worked out at 94.5%.
The value for `CC(C)(C)NC(=O)c1ccc(-n2ccnc2)c(-n2cccc2)c1` [CBK284811] was 103%.
The value for `Cc1ccc(CNC(=O)c2ccc(-n3ccnc3)c(-n3cccc3)c2)o1` [CBK284812] was 99.2%; that for `O=c1c2ccccc2nc2n1CCN(Cc1ccc(F)cc1)CC2` [CBK284814] was 96.9%; that for `CC(C)(C)NC(=O)C1C2CCC3(CC(=O)c4ccccc4O3)C21` (stereo not shown) [CBK284821] was 81.8%.
In the case of `COc1ccccc1CN1CCC2(CCCNC2=O)CC1` [CBK284823], the viability at 28.5 h, 10 µM was 85.2%.
`O=C1NCCCC12CCN(Cc1cccc3cccnc13)CC2` [CBK284826]: the viability at 28.5 h, 10 µM is 92.3%.
Turning to `O=C1CCN(Cc2ccccc2)CCN1C(=O)c1cccs1` [CBK284828], the viability at 28.5 h, 10 µM was 88.8%.
Under `CCC(CC)C(=O)N1CCN(Cc2ccccc2)CCC1=O` [CBK284830] stands 87.9%.
The value for `COCCCNC(=O)Cn1cccc2cc(-c3ccc(F)cc3)nc1-2` [CBK284834] was 93.4%.
Under `Cc1ncc(CN2CCCC(O)(c3ccc(F)cc3)CC2)n1C` (stereo not shown) [CBK284836] stands 89.6%.
For the molecule `CC1CC1C(=O)NCCc1c[nH]c2cccc(C3(O)CCOCC3)c12` (stereo not shown) [CBK284840], the viability at 28.5 h, 10 µM amounted to 95.7%.
The value for `O=C(CCn1c(C(F)(F)F)cc2cccnc21)NCc1ccncc1` [CBK284841] was 90.5%.
The value for `Cc1cc(C2CCCCCN2C(=O)c2c(C)noc2C)on1` (stereo not shown) [CBK284844] was 90%; that for `Cc1cc(C2CCCCCN2C(=O)c2c(C)noc2C)no1` (stereo not shown) [CBK284845] was 85.1%.
The value for `COCC(=O)NC1CCN(CC2(c3ccccc3F)CCCC2)CC1` [CBK284850] was 114%; that for `Cc1cc(C)n(CCCC(=O)N2CCc3ncc(Cl)cc3C2)n1` [CBK284852] was 103%.
Consider `Cc1cc(C(F)F)nn1CC(=O)N1CCc2ncc(Cl)cc2C1` [CBK284853], for which the viability at 28.5 h, 10 µM turned out to be 108%.
Turning to `O=C(c1cc(C2CC2)on1)N1CCc2ncc(Cl)cc2C1` [CBK284855], the viability at 28.5 h, 10 µM turned out to be 106%.
On to `CC(C)NC(=O)Cn1c(-c2ccc(F)cc2)cc2cccnc21` [CBK284862], for which the viability at 28.5 h, 10 µM stood at 107%.
The value for `COCC(C)NC(=O)Cn1c(-c2ccc(F)cc2)cc2cccnc21` (stereo not shown) [CBK284863] was 113%; that for `O=C(CCn1c(C(F)(F)F)cc2cccnc21)NC1CCCC1` [CBK284864] was 103%; that for `O=C(CCn1c(C(F)(F)F)cc2cccnc21)NC1CCCOC1` (stereo not shown) [CBK284867] was 109%.
The value for `CN1CC(C(=O)N2CCC(c3cc4ccccc4cn3)CC2)CC1=O` (stereo not shown) [CBK284870] was 96.8%.
Under `Cc1ccc(CN2CCCC(n3c(=O)oc4ccccc43)C2)o1` (stereo not shown) [CBK284871] stands 95.6%.
On to `Cc1ccc2c(c1)C(NC(=O)C1CC1C)CC1(CCOCC1)O2` (stereo not shown) [CBK284880], for which the viability at 28.5 h, 10 µM turned out to be 91.8%.
As for `Cc1cc(C[C@@H]2COC[C@H]2NCCc2ccccc2)on1` [CBK284882], the viability at 28.5 h, 10 µM amounted to 95.5%.
Turning to `Cc1cc(C[C@@H]2COC[C@H]2NCc2ccc(C)c(C)c2)on1` [CBK284883], the viability at 28.5 h, 10 µM is 106%.
The value for `Cc1cc(C[C@@H]2COC[C@H]2NCc2ccc(C(C)C)cc2)on1` [CBK284884] was 107%; that for `O=C(CCn1c(C(F)(F)F)cc2cccnc21)N1CCC(O)CC1` [CBK284887] was 89.7%.
As to `O=C1NC[C@]2(CC[C@@H](C(=O)NC3CC3)CC2)Oc2ccc(Cl)cc21` [CBK284889], the viability at 28.5 h, 10 µM turned out to be 94.2%.
The value for `CN(C)[C@@H]1CN(Cc2ccccc2O)C[C@H]1c1cn(C)c2ccccc12` [CBK284895] was 88.3%; that for `Cn1nc(C2CCN(C(=O)C3CCCCC3)CC2)c2cccnc21` [CBK284897] was 78.6%.
The value for `Cn1nc(C2CCN(C(=O)C3CCCC3)CC2)c2cccnc21` [CBK284899] was 101%; that for `O=C(c1ccccc1F)N1CCC(c2n[nH]c3ncccc23)CC1` [CBK284903] was 91.7%.
Under `O=C(c1cccs1)N1CCC(c2n[nH]c3ncccc23)CC1` [CBK284904] stands 92.3%; under `O=C(C1CCCCC1)N1CCC(c2n[nH]c3ncccc23)CC1` [CBK284905], 85.7%; under `O=C(CCc1ccccc1)N1CCC(c2n[nH]c3ncccc23)CC1` [CBK284906], 94.3%.
Take `O=C(Cc1ccccc1F)N1CCC(c2n[nH]c3ncccc23)CC1` [CBK284908]: the viability at 28.5 h, 10 µM stood at 89.6%.
Turning to `Cc1ccnn1CCC(=O)N1CCC(c2cc3cccnc3[nH]2)CC1` [CBK284912], the viability at 28.5 h, 10 µM was found to be 95.2%.
Under `Cc1cc(C(=O)N2CCCCCC2c2c(Cl)cnn2C)on1` (stereo not shown) [CBK284916] stands 99.3%.
The value for `Cc1noc(C)c1C(=O)N1CCCCCC1c1ccn(C)n1` (stereo not shown) [CBK284917] was 90.8%.
Consider `CCCc1cc(C2CCCCCN2C(=O)c2c(C)noc2C)no1` (stereo not shown) [CBK284919], for which the viability at 28.5 h, 10 µM came to 87.7%.
Consider `CN(C)C[C@H]1CC[C@]2(CC1)CN(C(=O)C1CC1)Cc1ccccc1O2` [CBK284920], for which the viability at 28.5 h, 10 µM is 101%.
Consider `CCOC(=O)C1(Cc2cc(-c3ccccc3)no2)CCNCC1` [CBK284924], for which the viability at 28.5 h, 10 µM came out at 111%.
Turning to `CCC(CC)C(=O)N1CCCC(c2cc3cccnc3[nH]2)C1` (stereo not shown) [CBK284926], the viability at 28.5 h, 10 µM worked out at 100%.
Turning to `Cc1ccn(CCC(=O)N2CCCC(c3cc4cccnc4[nH]3)C2)n1` (stereo not shown) [CBK284927], the viability at 28.5 h, 10 µM stood at 99.7%.
Under `Cn1nccc1C(=O)N1CCCC(c2cc3cccnc3[nH]2)C1` (stereo not shown) [CBK284929] stands 92.7%; under `CC(C)NC(=O)CCn1c(-c2ccncc2)cc2cccnc21` [CBK284931], 111%; under `Cc1cc(C[C@@H]2CCC[C@H]2NCc2ccncc2)on1` [CBK284934], 98.6%.
The value for `Cc1ccc(O)c(CN[C@@H]2CCC[C@H]2Cc2cc(C)no2)c1` [CBK284936] was 101%; that for `O=C(CC1CCCC1)N1CCCC(c2cc3cccnc3[nH]2)C1` (stereo not shown) [CBK284940] was 98.6%.
The value for `O=C(C1CCOCC1)N1CCCC(c2cc3cccnc3[nH]2)C1` (stereo not shown) [CBK284941] was 109%; that for `Cn1nc(C2CCN(C(=O)CC3CCCC3)CC2)c2cccnc21` [CBK284943] was 111%.
Turning to `Cc1ccccc1C(=O)N1CCC(O)(Cn2ccnc2C)CC1` [CBK284950], the viability at 28.5 h, 10 µM came out at 105%.
The value for `CN(C)[C@@H]1CN(Cc2ccc(O)cc2)C[C@H]1c1cn(C)c2ccccc12` [CBK284952] was 108%; that for `Cc1nc(C)c(C(=O)N2C3CCC2c2cc(Cl)cnc2C3)s1` (stereo not shown) [CBK284953] was 103%; that for `Cc1nccn1CC1(O)CCN(CC(C)c2ccccc2)CC1` (stereo not shown) [CBK284954] was 107%.
Under `CCCn1ncc(CN2CCCC(c3cc4cccnc4[nH]3)C2)c1C` (stereo not shown) [CBK284957] stands 95.1%.
For `CN1CC(C(=O)N2CCCC(c3cc4cccnc4[nH]3)C2)CC1=O` (stereo not shown) [CBK284958], the viability at 28.5 h, 10 µM came out at 92.5%.
Under `O=C(CCCn1ccnc1)N1CCCC(c2cc3cccnc3[nH]2)C1` (stereo not shown) [CBK284959] stands 107%.
For the molecule `O=C(CCn1c(C(F)(F)F)cc2cccnc21)N1CCCC1` [CBK284962], the viability at 28.5 h, 10 µM is 106%.
Under `O=C(CCn1c(-c2ccccn2)cc2cccnc21)NC1CCCC1` [CBK284965] stands 98.3%; under `CC(=O)NC(c1nccs1)C1CCCN(C(=O)C2CCCC2)C1` (stereo not shown) [CBK284966], 101%.
As to `CC(C)c1cc(C(=O)N2CCCCCC2c2cnn(C)c2)no1` (stereo not shown) [CBK284971], the viability at 28.5 h, 10 µM was 108%.
Under `Cn1ncc(Cl)c1C1CCCCCN1C(=O)c1cc(C2CC2)on1` (stereo not shown) [CBK284973] stands 102%; under `O=C(C1CCCO1)N1CCCC(c2cc3cccnc3[nH]2)C1` (stereo not shown) [CBK284978], 101%; under `O=C(C1CCCC1)N1CCCC(c2cc3cccnc3[nH]2)C1` (stereo not shown) [CBK284979], 105%.
The value for `CC1CN(C(=O)CCn2c(C(F)F)cc3cccnc32)CC(C)O1` (stereo not shown) [CBK284984] was 95.3%; that for `Cc1cc(C(=O)N2CCC(c3nn(C)c4ncccc34)CC2)cs1` [CBK284987] was 104%.
For the molecule `O=C1CCC(C(=O)N2CCCC(c3cc4ccccc4cn3)C2)CC1` (stereo not shown) [CBK284989], the viability at 28.5 h, 10 µM was found to be 102%.
The value for `O=C(c1c(F)cccc1F)N1C2CCC1c1snnc1C2` (stereo not shown) [CBK284990] was 91.5%.
Under `CC(=O)N1Cc2ccccc2OC2(CCCN(C(=O)C3CC3)C2)C1` (stereo not shown) [CBK284991] stands 97.1%; under `O=C(c1ccco1)N1CCN(C2C3CCCC2CNC3)CC1` (stereo not shown) [CBK284992], 94.4%; under `CCn1cncc1CN1CCCC(c2cc3cccnc3[nH]2)C1` (stereo not shown) [CBK284993], 98.5%.
Under `CC(C)C(=O)N1CCCC(c2cc3cccnc3[nH]2)C1` (stereo not shown) [CBK284994] stands 96.4%.
As for `Cc1nc(C)c(C(=O)N2CCCC(c3cc4cccnc4[nH]3)C2)s1` (stereo not shown) [CBK284995], the viability at 28.5 h, 10 µM is 97.4%.
Under `CC(CC(=O)N1CCCC(c2cc3cccnc3[nH]2)C1)n1cccn1` (stereo not shown) [CBK284996] stands 86.2%; under `Cc1nc(C)c(C(=O)N2CCC(c3cc4cccnc4[nH]3)CC2)s1` [CBK284998], 88.5%; under `O=C(Cc1ccsc1)N1CCC(c2cc3cccnc3[nH]2)CC1` [CBK285000], 85.6%.
Under `CCC(C)NC(=O)Cn1c(C2CCNCC2)cc2cccnc21` (stereo not shown) [CBK285003] stands 103%.
Take `Cc1csc(C(Cc2cccs2)NC(=O)Cc2ccccn2)n1` (stereo not shown) [CBK285005]: the viability at 28.5 h, 10 µM turned out to be 94.3%.
